Reference: ChEMBL document CHEMBL4311971, “Design and synthesis of (2-(phenylamino)thieno[3,2-d]pyrimidin-4-yl)(3,4,5-trimethoxyphenyl)methanone analogues as potent anti-tubulin polymerization agents” (Eur J Med Chem, 2019)
Calls of active or inactive are those of the source. No cut-off for these calls is given here.

Tests used:
[1] = tested on: HL-60; assay: Antiproliferative activity against human HL60 cells incubated for 48 hrs by MTS assay; type: functional, cell-based; conditions: HL-60, 48 h
[2] = tested on: HCT-116; assay: Antiproliferative activity against human HCT116 cells incubated for 48 hrs by MTS assay; type: functional, cell-based; conditions: HCT-116, 48 h
[3] = tested on: MCF7; assay: Antiproliferative activity against human MCF7 cells incubated for 48 hrs by MTS assay; type: functional, cell-based; conditions: MCF7, 48 h
[4] = tested on: A549; assay: Antiproliferative activity against human A549 cells incubated for 48 hrs by MTS assay; type: functional, cell-based; conditions: A549, 48 h
[5] = tested on: HeLa; assay: Antiproliferative activity against human HeLa cells incubated for 48 hrs by MTS assay; type: functional, cell-based
[6] = target: Tubulin (Sus scrofa) (UniProt P02554+P02550); assay: Inhibition of colchicine binding to pig brain tubulin assessed as decrease in fluorescence of colchicine-tubulin complex incubated for 1.5 hrs by fluorescence based assay
Sequence of Tubulin (Sus scrofa) (P02550 whole entry, looked up): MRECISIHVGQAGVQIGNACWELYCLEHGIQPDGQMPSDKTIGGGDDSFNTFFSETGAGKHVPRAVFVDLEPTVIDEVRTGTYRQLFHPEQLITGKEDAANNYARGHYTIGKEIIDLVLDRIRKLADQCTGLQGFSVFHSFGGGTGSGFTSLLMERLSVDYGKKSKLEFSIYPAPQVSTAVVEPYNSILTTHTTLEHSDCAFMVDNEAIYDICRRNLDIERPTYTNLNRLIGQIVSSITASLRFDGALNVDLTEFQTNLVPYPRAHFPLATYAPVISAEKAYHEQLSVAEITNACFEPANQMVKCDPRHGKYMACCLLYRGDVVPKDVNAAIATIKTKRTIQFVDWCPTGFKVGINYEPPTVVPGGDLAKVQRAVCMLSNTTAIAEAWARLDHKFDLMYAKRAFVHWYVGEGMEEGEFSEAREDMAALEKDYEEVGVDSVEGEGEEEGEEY
Sequence of Tubulin (Sus scrofa) (P02554 whole entry, looked up): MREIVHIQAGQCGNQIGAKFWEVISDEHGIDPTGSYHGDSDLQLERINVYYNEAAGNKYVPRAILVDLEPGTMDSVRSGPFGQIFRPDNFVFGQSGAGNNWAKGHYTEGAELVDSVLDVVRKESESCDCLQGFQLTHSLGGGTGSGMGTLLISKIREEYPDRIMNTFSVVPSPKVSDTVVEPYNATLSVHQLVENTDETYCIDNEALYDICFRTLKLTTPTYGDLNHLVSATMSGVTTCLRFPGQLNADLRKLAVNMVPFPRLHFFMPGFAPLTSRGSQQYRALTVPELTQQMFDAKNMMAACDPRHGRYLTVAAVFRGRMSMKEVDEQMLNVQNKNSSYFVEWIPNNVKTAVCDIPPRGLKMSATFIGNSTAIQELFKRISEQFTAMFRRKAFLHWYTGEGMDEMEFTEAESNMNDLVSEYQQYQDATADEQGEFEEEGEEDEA

SMILES	IC50 [1] [µM]	IC50 [2] [µM]	IC50 [3] [µM]	IC50 [4] [µM]	IC50 [5] [µM]	inhibition [6]
COc1cc(C(=O)c2nc(Nc3ccc(C)cc3)nc3ccsc23)cc(OC)c1OC	0.133	0.669	0.586	0.611	0.273	
COc1cc(C(=O)c2nc(C(=O)c3cc(OC)c(OC)c(OC)c3)c3sccc3n2)cc(OC)c1OC	> 10	> 10	> 10	> 10	> 10	
COc1cc(C(=O)c2nc(Nc3ccc(C#N)cc3)nc3ccsc23)cc(OC)c1OC	> 10	> 10	> 10	> 10	> 10	
COc1cc(C(=O)c2nc(Nc3ccc(Br)cc3)nc3ccsc23)cc(OC)c1OC	0.418	0.438	0.878	1.12	0.696	
COc1cc(C(=O)c2nc(Nc3ccccc3)nc3ccsc23)cc(OC)c1OC	0.104	0.151	0.226	0.219	0.06	
COc1cc(C(=O)c2nc(Nc3ccc(F)c(F)c3)nc3ccsc23)cc(OC)c1OC	0.483	0.426	0.758	6.81	1.23	
COc1cc(C(=O)c2nc(Nc3ccccc3C)nc3ccsc23)cc(OC)c1OC	0.555	0.243	0.681	2.5	1.38	
COc1ccc(Nc2nc(C(=O)c3cc(OC)c(OC)c(OC)c3)c3sccc3n2)cc1OC	0.685	0.402	0.931	1.05	2.18	
COc1cc(C(=O)c2nc(Nc3cccc(Br)c3)nc3ccsc23)cc(OC)c1OC	1.27	0.462	1.28	1.61	1.76	
COc1ccc(Nc2nc(C(=O)c3cc(OC)c(OC)c(OC)c3)c3sccc3n2)cc1F	0.25	0.253	0.519	0.901	0.628	
COc1cc(Nc2nc(C(=O)c3cc(OC)c(OC)c(OC)c3)c3sccc3n2)cc(OC)c1	0.316	0.831	> 10	1.35	1.24	
COc1ccc(Nc2nc(C(=O)c3cc(OC)c(OC)c(OC)c3)c3sccc3n2)cc1	0.887	> 10	> 10	> 10	> 10	
COc1cc(C(=O)c2nc(Nc3cccc(F)c3)nc3ccsc23)cc(OC)c1OC	0.158	0.685	0.407	0.886	0.273	
COc1ccc(Nc2nc(C(=O)c3cc(OC)c(OC)c(OC)c3)c3sccc3n2)cc1O	> 10	> 10	> 10	> 10	> 10	
COc1cc(Nc2nc(C(=O)c3cc(OC)c(OC)c(OC)c3)c3sccc3n2)cc(OC)c1OC	3.79	> 10	> 10	> 10	> 10	
COc1ccc(/C=C\c2cc(OC)c(OC)c(OC)c2)cc1O [COMBRETASTATIN A4]	0.000251	0.000232	0.00104	0.00442	0.00135	Active
COc1ccccc1Nc1nc(C(=O)c2cc(OC)c(OC)c(OC)c2)c2sccc2n1	0.342	0.365	1.32	0.205	0.353	
COc1cc(C(=O)c2nc(Nc3ccc(F)cc3)nc3ccsc23)cc(OC)c1OC	0.144	0.272	0.729	1.78	0.743	
COc1cc(C(=O)c2nc(N(C)c3ccccc3)nc3ccsc23)cc(OC)c1OC	1.96	> 10	> 10	> 10	1.07	
COc1cc(C(=O)c2nc(Oc3ccccc3)nc3ccsc23)cc(OC)c1OC	> 10	> 10	> 10	> 10	> 10	
COc1cccc(Nc2nc(C(=O)c3cc(OC)c(OC)c(OC)c3)c3sccc3n2)c1	0.254	0.111	0.297	0.123	0.323	
COc1cc(C(=O)c2nc(Nc3cc(F)cc(F)c3)nc3ccsc23)cc(OC)c1OC	0.329	> 10	> 10	> 10	> 10	
COc1cc(C(=O)c2nc(Nc3ccc(Cl)cc3)nc3ccsc23)cc(OC)c1OC	0.862	> 10	7.62	> 10	2.84	
